This passage reports IC50 results from patent US20250084078A1, “FUSED RING-SUBSTITUTED SIX-MEMBERED HETEROCYCLIC COMPOUND, AND PREPARATION METHOD THEREFOR AND USE THEREOF” (GENFLEFT THERAPEUTICS (SHANGHAI) INC., priority 2022, published 2025).

As a reminder, the IC50 is the concentration at which inhibition is half-maximal.

The target of experiment [1] is HPK1 (Homo sapiens, UniProt Q92918). Briefly: SLP76 phosphorylation assay (intracellular HPK1 inhibitory activity, p-SLP76 S376 ELISA in Jurkat cells). The settings on record: p-SLP76 IC50, Jurkat, Clone E6-1 cells; 1 h compound pre-incubation; anti-CD3 beads stimulation 20 min; Phospho-SLP-76 (Ser376) ELISA. (ELISA stands for enzyme-linked immunosorbent assay.)
Target sequence in this assay (Q92918 whole entry): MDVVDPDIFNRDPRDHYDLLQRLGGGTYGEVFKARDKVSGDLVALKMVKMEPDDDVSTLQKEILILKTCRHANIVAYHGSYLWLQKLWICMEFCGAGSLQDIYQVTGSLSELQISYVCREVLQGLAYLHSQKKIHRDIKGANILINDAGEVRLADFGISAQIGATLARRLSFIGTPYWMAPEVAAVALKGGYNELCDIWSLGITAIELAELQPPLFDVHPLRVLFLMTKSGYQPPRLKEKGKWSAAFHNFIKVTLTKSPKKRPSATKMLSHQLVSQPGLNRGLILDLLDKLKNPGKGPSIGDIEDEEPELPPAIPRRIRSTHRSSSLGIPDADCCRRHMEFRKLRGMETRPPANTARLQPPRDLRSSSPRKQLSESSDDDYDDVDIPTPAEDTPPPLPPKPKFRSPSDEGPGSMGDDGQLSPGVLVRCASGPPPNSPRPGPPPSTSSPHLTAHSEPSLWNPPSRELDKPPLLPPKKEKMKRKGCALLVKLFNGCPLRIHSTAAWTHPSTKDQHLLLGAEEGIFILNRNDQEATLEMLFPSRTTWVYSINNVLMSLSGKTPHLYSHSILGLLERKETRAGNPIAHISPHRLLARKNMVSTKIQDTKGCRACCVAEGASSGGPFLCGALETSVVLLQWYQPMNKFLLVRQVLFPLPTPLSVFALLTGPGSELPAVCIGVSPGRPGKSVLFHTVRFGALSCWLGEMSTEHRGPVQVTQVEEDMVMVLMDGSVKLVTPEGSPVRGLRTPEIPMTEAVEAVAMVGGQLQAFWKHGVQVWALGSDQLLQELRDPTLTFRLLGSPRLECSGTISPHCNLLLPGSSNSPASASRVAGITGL
Experiment [2] has as its target T1, HPK1 (Homo sapiens, UniProt Q92918).
T1 sequence (Q92918 1-346): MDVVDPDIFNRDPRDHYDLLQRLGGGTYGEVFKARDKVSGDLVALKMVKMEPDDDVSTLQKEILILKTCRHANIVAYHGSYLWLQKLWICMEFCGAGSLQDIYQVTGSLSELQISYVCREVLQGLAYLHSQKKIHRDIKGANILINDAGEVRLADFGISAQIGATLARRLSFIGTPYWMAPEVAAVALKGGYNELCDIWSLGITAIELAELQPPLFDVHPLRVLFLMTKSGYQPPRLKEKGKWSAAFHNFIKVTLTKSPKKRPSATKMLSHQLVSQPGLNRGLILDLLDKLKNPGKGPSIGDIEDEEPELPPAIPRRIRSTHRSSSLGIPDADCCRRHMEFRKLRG
Briefly: HPK1 kinase activity assay (ADP-Glo). The settings on record: 1 nM HPK1, 10 μM ATP, 0.1 μg/μL MBP. In general terms: ADP-Glo turns the ADP formed in a reaction into a luminescent signal.
Procedure: Preparation of buffer: Ix reaction buffer (40 mM Tris-HCl, 20 mM MgCl2, 0.01% Brij35, 50 μM DTT, 0.1 mg/ml BSA) was prepared using sterile water, which was prepared and used on the day of the experiment.
Preparation of 1000× drug stock plate: a 1000× compound stock plate was prepared. […] The compound stock plate was sealed with a sealing film and stored in a −20° C. refrigerator for later use.
Compound preparation and dosing: the 1000× drug stock plate was taken and melted at room temperature in the dark. Then 5× drug intermediate plate was prepared using reaction buffer and mixed well. 2 μL was transferred from the 5× drug intermediate plate into a 384-well plate, and negative control well and positive control well (in which 2 μL reaction buffer containing 0.5% DMSO was added) were set. Each point was repeated twice.
Preparation and incubation of reaction mixture: HPK1 protein was diluted to a 2.5× working solution with reaction buffer. 4 μL 2.5×HPK1 protein was added to each well containing test compound and positive control well, and 4 μL of reaction buffer without HPK1 protein was added to the negative control well. The obtained mixture was centrifuged at 1000 rpm for 1 min and then incubated in a 20° C. incubator for 15 min. A 2.5× mixed working solution of MBP protein and ATP was prepared with reaction buffer at concentrations of 0.5 μg/μL and 50 μM, respectively. 4 μL of the mixed working solution of MBP and ATP was added to each well, centrifuged at 1000 rpm for 1 min, and then incubated in a 20° C. incubator for 90 min.
ADP-Glo detection and reading plate: 10 μl ADP-Glo was added to each well of the test plate. The resulting mixture was centrifuged at 1000 rpm for 1 min and incubated in a 20° C. incubator for 60 min. Then 10 μL of the final incubation solution was transferred from the test plate to a new 384-well plate. 10 μL of kinase detection reagent was added to each well, centrifuged at 400 g for 1 min, and incubated in a 20° C. incubator for 60 min Chemiluminescent signals were read by a microplate reader.

[3] abbreviates: HPK1 Kinase activity IC50, ADP-Glo.

Regarding `O=C(N1CCc2cc(-c3cnc4[nH]cc(Cl)c4n3)cc([C@@H]3COCCN3)c2C1)N1C2CCC1COC2` [Compound Z571, (3-oxa-8-azabicyclo[3.2.1]octan-8-yl)(6-(7-chloro-5H-pyrrolo[2,3-b]pyrazin-2-yl)-8-((R)-morpholin-3-yl)-3,4-dihydroisoquinolin-2(1H)-yl)methanone], the IC50 on HPK1 [1] was determined as 0.108 µM; on HPK1 [2] (setting [3]), 0.00049 µM. The like results for `Cc1c[nH]c2ncc(-c3cc4c(c([C@@H]5COCCN5)c3)CN(C(=O)N3CC[C@H](F)C3)CC4)nc12` [Compound Z603, ((S)-3-fluoropyrrolidin-1-yl)(6-(7-methyl-5H-pyrrolo[2,3-b]pyrazin-2-yl)-8-((R)-morpholin-3-yl)-3,4-dihydroisoquinolin-2(1H)-yl)methanone] were, in that order, 0.0674 µM and 0.00021 µM. As to `CC(C)c1c[nH]c2ncc(-c3cc4c(c([C@@H]5COCCN5)c3)CN(C(=O)C(C)(C)O)CC4)cc12` [Compound Z419, (R)-2-hydroxy-1-(6-(3-isopropyl-1H-pyrrolo[2,3-b]pyridin-5-yl)-8-(morpholin-3-yl)-3,4-dihydroisoquinolin-2(1H)-yl)-2-methylpropan-1-one], the IC50 was determined as 0.0742 µM against HPK1 [1] and 0.00011 µM on HPK1 [2] (setting [3]).

`Cc1c[nH]c2ncc(-c3cc4c(c([C@@H]5COCCN5)c3)CN(C(=O)N3CC[C@H](F)C3)CC4)cc12` [Compound Z488, ((S)-3-fluoropyrrolidin-1-yl)(6-(3-methyl-1H-pyrrolo[2,3-b]pyridin-5-yl)-8-((R)-morpholin-3-yl)-3,4-dihydroisoquinolin-2(1H)-yl)methanone]: the values for the IC50 at HPK1 [1] and at HPK1 [2] (setting [3]) were 0.15 µM and 0.00021 µM, respectively. As to `Cc1c[nH]c2ncc(-c3cc4c(c([C@@H]5COCCN5)c3)CCN(C(=O)[C@H]3CCOC3)C4)cc12` [Compound Z446, (7-(3-methyl-1H-pyrrolo[2,3-b]pyridin-5-yl)-5-((R)-morpholin-3-yl)-3,4-dihydroisoquinolin-2(1H)-yl)((S)-tetrahydrofuran-3-yl)methanone], the IC50 against HPK1 [1] was found to be 0.196 µM; at HPK1 [2] (setting [3]) it was 0.00083 µM. The like results for `CC1(C)CC(O)CN1C(=O)N1CCc2cc(-c3cnc4[nH]cc(Cl)c4c3)cc([C@@H]3COCCN3)c2C1` (stereo partly drawn) [Compound Z617, (6-(3-chloro-1H-pyrrolo[2,3-b]pyridin-5-yl)-8-((R)-morpholin-3-yl)-3,4-dihydroisoquinolin-2(1H)-yl)(4-hydroxy-2,2-dimethylpyrrolidin-1-yl)methanone] were, in that order, 0.0862 µM and 0.00036 µM.

As for `O=C(N1CCc2cc(-c3cnc4[nH]cc(Cl)c4c3)cc([C@@H]3COCCN3)c2C1)N1C2CCC1COC2` [Compound Z489, (3-oxa-8-azabicyclo[3.2.1]octan-8-yl)(6-(3-chloro-1H-pyrrolo[2,3-b]pyridin-5-yl)-8-((R)-morpholin-3-yl)-3,4-dihydroisoquinolin-2(1H)-yl)methanone], the IC50 came out at 0.0821 µM against HPK1 [1] and 0.00021 µM against HPK1 [2] (setting [3]).

As for `Cc1c[nH]c2ncc(-c3cc4c(c([C@@H]5COCCN5)c3)CN(C(=O)N3CC5CCC(C3)O5)CC4)nc12` [Compound Z572, (8-oxa-3-50 azabicyclo[3.2.1]octan-3-yl)(6-(7-methyl-5H-pyrrolo[2,3-b]pyrazin-2-yl)-8-((R)-morpholin-3-yl)-3,4-dihydroisoquinolin-2(1H)-yl)methanone], the IC50 is 0.028 µM against HPK1 [1] and 0.00016 µM at HPK1 [2] (setting [3]). As for `O=C(N1CCc2cc(-c3cnc4[nH]cc(C(F)(F)F)c4c3)cc([C@@H]3COCCN3)c2C1)N1CC2CCC(C1)O2` [Compound Z544, (8-oxa-3-azabicyclo[3.2.1]octan-3-yl)(8-((R)-morpholin-3-yl)-6-(3-(trifluoromethyl)-1H-pyrrolo[2,3-b]pyridin-5-yl)-3,4-dihydroisoquinolin-2(1H)-yl)methanone], the values for the IC50 on HPK1 [1] and against HPK1 [2] (setting [3]) were 0.0501 µM and 0.00012 µM, respectively. In the case of `Cc1c[nH]c2ncc(-c3cc4c(c([C@H]5COCCN5)c3)CCN(C(=O)C3CCOCC3)C4)cc12` [Compound Z449, (S)-(7-(3-methyl-1H-pyrrolo[2,3-b]pyridin-5-yl)-5-(morpholin-3-yl)-3,4-dihydroisoquinolin-2(1H)-yl)(tetrahydro-2H-pyran-4-yl)methanone], at HPK1 [2] (setting [3]), the IC50 amounted to 0.0124 µM. On to `Cc1cn(C2CC2)nc1C(=O)N1CCc2cc(-c3cnc4[nH]cc(C)c4c3)cc([C@@H]3CCCN3)c2C1` [Compound Z342, (S)-(1-cyclopropyl-4-methyl-1H-pyrazol-3-yl)-[6-(3-methyl-1H-pyrrolo[2,3-b]pyridin-5-yl)-8-[pyrrolidin-2-yl]-3,4-dihydro-2(1H)-isoquinolin-yl]methanone], for which the half-inhibitory concentration (IC50) on HPK1 [2] (read-out: HPK1 Kinase activity IC50, ADP-Glo) came out at 0.00064 µM. For the molecule `Cc1c[nH]c2ncc(-c3cc4c(c(C5COCCN5)c3)CN(C(=O)[C@](C)(O)C(F)(F)F)CC4)cc12` (single isomer, unassigned) [Compound Z309-2], half-maximal inhibition on HPK1 [2] (setting [3]) (IC50) required 0.0227 µM. Molecule `O=C([C@H]1CCOC1)N1CCc2cc(-c3cnc4[nH]cc(Cl)c4c3)cc([C@@H]3COCCN3)c2C1` [Compound Z631, (6-(3-chloro-1H-pyrrolo[2,3-b]pyridin-5-yl)-8-((R)-morpholin-3-yl)-3,4-dihydroisoquinolin-2(1H)-yl)((S)-tetrahydrofuran-3-yl)methanone] yielded an IC50 on HPK1 [1] of 0.24 µM.

`O=C(N1CCC(O)CC1)N1CCc2cc(-c3cnc4[nH]cc(Cl)c4c3)cc([C@@H]3COCCN3)c2C1` [Compound Z555, (R)-(6-(3-chloro-1H-pyrrolo[2,3-b]pyridin-5-yl)-8-(morpholin-3-yl)-3,4-dihydroisoquinolin-2(1H)-yl)(4-hydroxypiperidin-1-yl)methanone]: the IC50 at HPK1 [1] came to 0.481 µM.

Molecule `COCC(=O)N1CCc2cc(-c3cnc4[nH]cc(Cl)c4c3)cc([C@@H]3COCCN3)c2C1` [Compound Z466, (R)-1-[6-(3-chloro-1H-pyrrolo[2,3-b]pyridin-5-yl)-8-morpholin-3-yl-3,4-dihydroisoquinolin-2(1H)-yl]-2-methoxyethan-1-one] returned an IC50 at HPK1 [1] of 0.306 µM.

`Cc1c[nH]c2ncc(-c3cc4c(c([C@@H]5COCCN5)c3)CN(C(=O)N3CCN(C)CC3)CC4)cc12` [Compound Z482, (R)-(6-(3-methyl-1H-pyrrolo[2,3-b]pyridin-5-yl)-8-(morpholin-3-yl)-3,4-dihydroisoquinolin-2(1H)-yl)(4-methylpiperazin-1-yl)methanone] gave an IC50 against HPK1 [1] of 0.311 µM.

For `COC1CCN(C(=O)N2CCc3cc(-c4cnc5[nH]cc(Cl)c5c4)cc([C@@H]4COCCN4)c3C2)CC1` [Compound Z589, (R)-(6-(3-chloro-1H-pyrrolo[2,3-b]pyridin-5-yl)-8-(morpholin-3-yl)-3,4-dihydroisoquinolin-2(1H)-yl)(4-methoxypiperidin-1-yl)methanone], the IC50 against HPK1 [1] is 0.246 µM. Still for that read-out and setting: in the case of `Cc1cc(-c2c[nH]c3ncc(-c4cc5c(c([C@@H]6COCCN6)c4)CN(C(=O)C(C)(C)O)CC5)cc23)c(C)cn1` [Compound Z545, (R)-1-(6-(3-(2,5-dimethylpyridin-4-yl)-1H-pyrrolo[2,3-b]pyridin-5-yl)-8-(morpholin-3-yl)-3,4-dihydroisoquinolin-2(1H)-yl)-2-hydroxy-2-methylpropan-1-one] it was 0.56 µM; in that of `Cc1c[nH]c2ncc(-c3cc4c(c([C@@H]5COCCN5)c3)CN(C3CCN(C)CC3)CC4)cc12` [Compound Z498, (R)-3-(6-(3-methyl-1H-pyrrolo[2,3-b]pyridin-5-yl)-2-(1-methylpiperidin-4-yl)-1,2,3,4-tetrahydroisoquinolin-8-yl)morpholine], 0.195 µM; in that of `Cc1c[nH]c2ncc(-c3cc4c(c([C@@H]5COCCN5)c3)CN(C3CCOCC3)CC4)cc12` [Compound Z454, (R)-3-(6-(3-methyl-1H-pyrrolo[2,3-b]pyridin-5-yl)-2-(tetrahydro-2H-pyran-4-yl)-1,2,3,4-tetrahydroisoquinolin-8-yl)morpholine], 0.655 µM.

On HPK1 [1], `Cc1c[nH]c2ncc(-c3cc4c(c([C@@H]5COCCN5)c3)CN(C(=O)N3CCC5(CCOCC5)C3)CC4)cc12` [Compound Z565, (R)-(6-(3-methyl-1H-pyrrolo[2,3-b]pyridin-5-yl)-8-(morpholin-3-yl)-3,4-dihydroisoquinolin-2(1H)-yl)(8-oxa-2-azaspiro[4.5]decan-2-yl)methanone] displayed an IC50 of 0.245 µM.

In the case of `Cc1c[nH]c2ncc(-c3cc4c(c([C@@H]5COCCN5)c3)CN(C(=O)N3CC5CC(C3)O5)CC4)cc12` [Compound Z516, (6-oxa-3-azabicyclo[3.1.1]heptan-3-yl)-(6-(3-methyl-1H-pyrrolo[2,3-b]pyridin-5-yl)-8((R)-morpholin-3-yl)-3,4-dihydroisoquinolin-2(1H)-yl)methanone], on HPK1 [1], the IC50 came to 0.161 µM. For `CCC(=O)N1CCc2cc(-c3cnc4[nH]cc(C)c4c3)cc(C3CCCN3)c2C1` (stereo not drawn) [Compound Z35], at HPK1 [2] (setting [3]), the IC50 stood at 0.00087 µM. At HPK1 [1], `COc1c[nH]c2ncc(-c3cc4c(c([C@@H]5COCCN5)c3)CN(C(=O)C(C)(C)O)CC4)cc12` [Compound Z576, (R)-2-hydroxy-1-(6-(3-methoxy-1H-pyrrolo[2,3-b]pyridin-5-yl)-8-(morpholin-3-yl)-3,4-dihydroisoquinolin-2(1H)-yl)-2-methylpropan-1-one] gave an IC50 of 0.188 µM.
